Test results taken from ChEMBL document CHEMBL4017451, “Discovery of a series of 1,3,4-oxadiazole-2(3H)-thione derivatives containing piperazine skeleton as potential FAK inhibitors” (Bioorg Med Chem, 2017).

Experiments:
SW 1116 = experiment: Antiproliferative activity against human SW1116 cells after 48 hrs by MTT assay; details: SW 1116, 48 h
HeLa = experiment: cells; details: Homo sapiens, 48 h
BGC-823 = experiment: cells; details: Homo sapiens, BGC-823, 48 h
Description: Antiproliferative activity against human BGC823 cells after 48 hrs by MTT assay

HepG2 = experiment: cells; details: Homo sapiens, HepG2, 48 h

Row | Structure (SMILES) | IC50 (SW 1116) [µM] | IC50 (HeLa) [µM] | IC50 (BGC-823) [µM] | IC50 (HepG2) [µM]
1 | S=c1oc(-c2ccc3c(c2)OCCO3)nn1CN1CCN(c2ccc(Cl)c(Cl)c2)CC1 | 33.4 | > 50 | > 50 | 23.8
2 | S=c1oc(-c2ccc3c(c2)OCCO3)nn1CN1CCN(c2cccc(Cl)c2)CC1 | > 50 | 47.2 | > 50 | > 50
3 | Cc1ccc(N2CCN(Cn3nc(-c4ccc5c(c4)OCCO5)oc3=S)CC2)c(C)c1 | > 50 | > 50 | 28.3 | 28.4
4 | COc1ccccc1N1CCN(Cn2nc(-c3ccc4c(c3)OCCO4)oc2=S)CC1 | 16.9 | > 50 | 19.5 | 15.5
5 | FC(F)(F)c1cccc(N2CCN(Cn3nc(-c4ccc5c(c4)OCCO5)oc3=S)CC2)c1 | 47.1 | > 50 | > 50 | 5.78
6 | COc1cccc(N2CCN(Cn3nc(-c4ccc5c(c4)OCCO5)oc3=S)CC2)c1 | > 50 | 18 | > 50 | 21.4
7 | S=c1oc(-c2ccc3c(c2)OCCO3)nn1CN1CCN(c2cccc(Cl)c2Cl)CC1 | 37.1 | > 50 | 22.6 | > 50
8 | S=c1oc(-c2ccc3c(c2)OCCO3)nn1CN1CCN(c2ccccc2)CC1 | > 50 | > 50 | > 50 | > 50
9 | S=c1oc(-c2ccc3c(c2)OCCO3)nn1CN1CCN(c2ccc(Cl)cc2)CC1 | > 50 | > 50 | > 50 | > 50
10 | S=c1oc(-c2ccc3c(c2)OCCO3)nn1CN1CCN(Cc2ccccc2)CC1 | > 50 | 27.1 | 28.7 | 18
11 | S=c1oc(-c2ccc3c(c2)OCCO3)nn1CN1CCN(c2ccccn2)CC1 | 9.49 | 25.1 | 25.9 | 11.3
12 | COc1ccc(N2CCN(Cn3nc(-c4ccc5c(c4)OCCO5)oc3=S)CC2)cc1 | 24.2 | > 50 | 18.9 | > 50
13 | Fc1ccc(N2CCN(Cn3nc(-c4ccc5c(c4)OCCO5)oc3=S)CC2)cc1 | > 50 | > 50 | > 50 | > 50
14 | O=[N+]([O-])c1ccc(N2CCN(Cn3nc(-c4ccc5c(c4)OCCO5)oc3=S)CC2)cc1 | > 50 | 31.7 | > 50 | 29.5
15 | S=c1oc(-c2ccc3c(c2)OCCO3)nn1CN1CCN(c2ccccc2Cl)CC1 | > 50 | 37.4 | > 50 | 11.4
16 | Fc1ccccc1N1CCN(Cn2nc(-c3ccc4c(c3)OCCO4)oc2=S)CC1 | 37.8 | 37.3 | > 50 | > 50
17 | O=c1[nH]cc(F)c(=O)[nH]1 [FLUOROURACIL] | 18.5 | 9.02 | 17.4 | 13.3
18 | S=c1oc(-c2ccc3c(c2)OCCO3)nn1CN1CCN(C(c2ccccc2)c2ccccc2)CC1 | 21.6 | > 50 | > 50 | 9.12
